Results on 1 compound are retold here after publication PMC10674987, “Sweet Cherry Extract as Permeation Enhancer of Tyrosine Kinase Inhibitors: A Promising Prospective for Future Oral Anticancer Therapies” (Pharmaceuticals, 2023).

Where two headings read alike, the source gives them in different places.

Data set [1] in a line: Bidirectional permeability in Caco-2 cells in absence and presence of SCE. It counts as in vitro ADME, human. The note with it: human, 10 µM compound; for Papp A→B at 2 h, 10 µM: apical to basolateral; for Papp B→A at 2 h, 10 µM: basolateral to apical; for efflux ratio at 2 h, 10 µM: read-out: Efflux ratio (ER) (Papp B-A/Papp A-B). The protocol: (§1) Caco-2 cells were seeded at a density of 2 × 10^4 on Transwell supports (0.4 µm pore polycarbonate membrane, 6.5 mm) and incubated overnight in a controlled atmosphere of 37 °C and 5% of CO2. The following day, the medium was changed to remove floating cells and fresh pre-warmed DMEM 20% was added (300 µL in the apical compartment and 1200 µL in the basal one). Cells were cultured for approximately 18–21 days in order to ensure that the cellular monolayers differentiated and many transport proteins and brush border hydrolases were expressed. Media were changed every 2–3 days.
(§2) For permeability studies, stock solutions of compounds were prepared by solubilizing 1.0 mg of accurately weighed powder with dimethyl sulfoxide (DMSO) and conserved at −20 °C. Immediately prior to the experiments, working solutions (WS) were prepared by diluting the stock solutions with pre-warmed HBSS to the final concentration of 10 µM. The final concentration of DMSO used never exceeded 0.1% v/v. The assays were performed in both the absorptive (from apical-to-basolateral compartment (A-B)) and the secretory direction (from basolateral-to-apical compartment (B-A)), both in the absence (Free) and presence of sweet cherry extract (+SCE [1 mg/mL]) diluted in HBSS. The final volumes used for the experiment were 300 µL in the apical compartment and 1200 µL in the basolateral one. Plates were incubated at 37 °C and maintained under gentle shaking (500 rpm) to reduce the effect of the unstirred water layer. At selected time points (T0–0.25–0.5–1–2 h-TEND for the A-B studies; T0–2 h–TEND for the B-A studies), samples (200 µL) were collected from the receiving compartments (from the basolateral compartment for the A-B assay; from the apical one for the B-A study) and replaced with the same volume of HBSS. The HPLC-UV/MS method was developed to quantify the amount of drug transferred across the cellular monolayer, and permeability (Papp, 10^−6 cm/s) and efflux ratio (ER) were calculated according to the following equations:Papp = (dQ/dt) × 1/(A × C0)(5) where dQ/dt is the steady-state flux (µmol s^−1), A is the area of the filter (cm^2), and C0 is the initial concentration in the donor compartment (µM). ER = (Papp B-A)/(Papp A-B)(6)
(§3) Chromatographic analyses were carried out using an Agilent 1260 Infinity HPLC-DAD system connected to an Agilent MSD 6130 system (Agilent Technologies, Palo Alto, CA, USA). At room temperature, a Kinetex C18-100 Å column (150 mm 4.6 mm, purchased from Phenomenex, Torrance, CA, USA) with a 5 µm particle size and gradient elution with a binary solution (eluent A: H2O, eluent B: ACN, both acidified with 0.1% v/v formic acid) was for the chromatographic separation. Analyses started with 5% B (from t = 0 to t = 1 min), then increased to 95% (from t = 1 to t = 10 min), then maintained at 95% (from t = 10 to t = 15 min), and finally returned to […] in 1.0 min. The volume injected was 10 µL, and the flow rate 600 µL/min. UV detection was monitored at 254 nm, and spectra were collected in both the positive and negative modes within the scan range of m/z 100–1500.
On the technique in general: Caco-2 monolayers are a common model of the intestinal barrier.

Another data set has as its system Caco-2 monolayer. The data set is described as above. The class given is in vitro ADME, human. The protocol: as §1, §2, §3
For data set [2] the following is noted: previously published; cited from earlier work.
For data set [3] the following is noted: previously published; cited from earlier work. This is another data set of the same source.
The conditions of data set [4]: human liver microsomes; previously published; cited from earlier work. (Liver microsomes are vesicles of endoplasmic reticulum, rich in cytochrome P450 enzymes.)

`Oc1ccc(Cl)c(Nc2nc(SCCN3CCOCC3)nc3c2cnn3/C=C/c2ccccc2)c1` [Cpd 7] yielded a melting point of 189 to 191 °C. In data set [1] (Caco-2, +SCE [1 mg/mL]), the Papp A→B at 2 h, 10 µM was determined as 1.17 ± 0.12 ×10⁻⁶ cm/s; the Papp B→A at 2 h, 10 µM amounted to 0.457 ± 0.108 ×10⁻⁶ cm/s; the efflux ratio at 2 h, 10 µM worked out at 0.387 ± 0.052. Also, in data set [1] (Caco-2, Free), the Papp A→B at 2 h, 10 µM is < 0.5 ×10⁻⁶ cm/s; the Papp B→A at 2 h, 10 µM came to 0.229 ± 0.023 ×10⁻⁶ cm/s; the efflux ratio at 2 h, 10 µM was 0.517 ± 0.014. Further, in the data set on Caco-2 monolayer (+SCE 1 mg/mL vs Free), the “Change of Papp A-B in presence of SCE vs Free” value is “almost doubled”, the “Change of Papp B-A in presence of SCE vs Free” value is reported as “only a slight increase” and the “Change of efflux ratio in presence of SCE vs Free” value is “only a slight decrease”. Also, the “Efflux ratio (ER) (Papp B-A/Papp A-B)” value with Caco-2 monolayer (Free, 10 µM compound) is 0.481 ± 0.049. In addition, the “Water Solubility” value in data set [2] is reported as 0.036 µg/mL. In data set [3], the “PAMPA Papp” value is 5.5 10^−6 cm/s and the “PAMPA membrane retention (MR %)” value was 5.4%. In addition, the “Metabolic Stability” value in data set [4] is reported as 97.6%.

The term Papp A→B denotes the apparent permeability from the apical to the basolateral side of a cell layer. What is called Papp B→A is the apparent permeability from the basolateral to the apical side of a cell layer. For orientation: melting point means the temperature, or range, at which the solid turns liquid.
